± gives the expanded uncertainty stated by the source.
Settings: Liquid, Frequency=2 MHz, Single path-length method

CCO [ethanol]
Settings	speed of sound [m/s]
323.31 K, 1410 kPa	1070.7 ± 1.2
323.31 K, 5245 kPa	1096.8 ± 1.2
323.31 K, 11101 kPa	1135 ± 1.3
323.31 K, 17687 kPa	1174.5 ± 1.3
323.31 K, 23114 kPa	1204.2 ± 1.4
323.31 K, 30237 kPa	1241.9 ± 1.5
323.31 K, 36831 kPa	1274.5 ± 1.5
323.31 K, 43809 kPa	1306 ± 1.6
323.31 K, 50864 kPa	1337.3 ± 1.6
323.31 K, 58500 kPa	1369.4 ± 1.7
323.31 K, 62862 kPa	1386.2 ± 1.7
347.1 K, 1446 kPa	991.29 ± 1.1
347.1 K, 4092 kPa	1011.8 ± 1.1
347.1 K, 7163 kPa	1035 ± 1.1
347.1 K, 14616 kPa	1085.6 ± 1.2
347.1 K, 21177 kPa	1126.4 ± 1.3
347.1 K, 28408 kPa	1168.1 ± 1.3
347.1 K, 35022 kPa	1203.4 ± 1.4
347.1 K, 42067 kPa	1238.6 ± 1.4
347.1 K, 48843 kPa	1270.3 ± 1.5
347.1 K, 54137 kPa	1294.1 ± 1.5
347.1 K, 58348 kPa	1312.6 ± 1.6
347.1 K, 62859 kPa	1331.6 ± 1.6
369.38 K, 1432 kPa	914.53 ± 1
369.38 K, 3923 kPa	936.5 ± 1
369.38 K, 7109 kPa	963.26 ± 1.1
369.38 K, 11382 kPa	996.24 ± 1.1
369.38 K, 19601 kPa	1053.8 ± 1.2
369.38 K, 27704 kPa	1104.7 ± 1.2
369.38 K, 33060 kPa	1135.3 ± 1.3
369.38 K, 41165 kPa	1179.1 ± 1.4
369.38 K, 49420 kPa	1220.3 ± 1.4
369.38 K, 54796 kPa	1246.1 ± 1.4
369.38 K, 58367 kPa	1261.5 ± 1.5
369.38 K, 65148 kPa	1291.2 ± 1.5
397.28 K, 1546 kPa	811.26 ± 0.98
397.28 K, 4302 kPa	840.39 ± 0.97
397.28 K, 7333 kPa	870.18 ± 0.99
397.28 K, 12482 kPa	915.79 ± 1
397.28 K, 18105 kPa	960.62 ± 1.1
397.28 K, 24432 kPa	1006.2 ± 1.1
397.28 K, 29996 kPa	1043.3 ± 1.1
397.28 K, 36074 kPa	1080.7 ± 1.2
397.28 K, 44752 kPa	1129.5 ± 1.3
397.28 K, 49805 kPa	1156 ± 1.3
397.28 K, 58415 kPa	1198.6 ± 1.4
397.28 K, 63790 kPa	1223.5 ± 1.4
422.9 K, 1514 kPa	701.53 ± 0.95
422.9 K, 5675 kPa	755.36 ± 0.94
422.9 K, 9530 kPa	798.44 ± 0.93
422.9 K, 15206 kPa	853.77 ± 0.95
422.9 K, 23492 kPa	923.37 ± 1
422.9 K, 31793 kPa	984.06 ± 1.1
422.9 K, 38446 kPa	1027.7 ± 1.1
422.9 K, 47571 kPa	1082 ± 1.2
422.9 K, 53132 kPa	1112.2 ± 1.2
422.9 K, 58734 kPa	1141.2 ± 1.3
422.9 K, 63754 kPa	1166.2 ± 1.3

Source: the NIST ThermoML archive (doi:10.1021/acs.jced.7b01018)
